Assay results published in ChEMBL document CHEMBL5634112, “Synthesis and biological evaluation of fluoroquinolones containing a pyridoxine derivatives moiety” (Eur J Med Chem, 2023).
Values after ≈ are worked out from the molar mass of the structure shown.

Tests used:
[1] = system: Staphylococcus aureus; test: Antibacterial activity against clinical isolate Staphylococcus aureus 4721 assessed as reduction in microbial growth incubated for 24 hrs by broth microdilution method; assay type: functional
[2] = system: Staphylococcus haemolyticus; test: Antibacterial activity against clinical isolate Staphylococcus haemolyticus NKC 31/2 assessed as reduction in microbial growth incubated for 24 hrs by broth microdilution method; assay type: functional
[3] = system: Klebsiella aerogenes; test: Antibacterial activity against clinical isolate Enterobacter aerogenes NKC 8 assessed as reduction in microbial growth incubated for 24 hrs by broth microdilution method; assay type: functional
[4] = system: Klebsiella pneumoniae; test: Antibacterial activity against clinical isolate Klebsiella pneumoniae 1678 assessed as reduction in microbial growth incubated for 24 hrs by broth microdilution method; assay type: functional
[5] = system: Staphylococcus aureus; test: Antibacterial activity against clinical isolate methicillin resistant Staphylococcus aureus 4771 assessed as reduction in microbial growth incubated for 24 hrs by broth microdilution method; assay type: functional
[6] = Cytotoxicity against human HSF assessed as reduction in cell viability incubated for 72 hrs by MTT assay; assay type: toxicity, cell-based; settings: HSF cells
[7] = system: Staphylococcus aureus; test: Antibacterial activity against clinical isolate Staphylococcus aureus 1812 assessed as reduction in microbial growth incubated for 24 hrs by broth microdilution method; assay type: functional
[8] = system: Pseudomonas aeruginosa; test: Antibacterial activity against Pseudomonas aeruginosa ATCC 27853 assessed as reduction in microbial growth incubated for 24 hrs by broth microdilution method; assay type: functional
[9] = system: Staphylococcus auricularis; test: Antibacterial activity against clinical isolate Staphylococcus auricularis NKC 7 assessed as reduction in microbial growth incubated for 24 hrs by broth microdilution method; assay type: functional
[10] = system: Escherichia coli; test: Antibacterial activity against clinical isolate Escherichia coli NKC 1 assessed as reduction in microbial growth incubated for 24 hrs by broth microdilution method; assay type: functional
[11] = system: Bacillus subtilis; test: Antibacterial activity against Bacillus subtilis 168 assessed as reduction in microbial growth incubated for 24 hrs by broth microdilution method; assay type: functional
[12] = system: Staphylococcus aureus; test: Antibacterial activity against methicillin sensitive Staphylococcus aureus ATCC 29213 assessed as reduction in microbial growth incubated for 24 hrs by broth microdilution method; assay type: functional
[13] = system: Staphylococcus epidermidis; test: Antibacterial activity against clinical isolate Staphylococcus epidermidis assessed as reduction in microbial growth incubated for 24 hrs by broth microdilution method; assay type: functional
[14] = system: Micrococcus luteus; test: Antibacterial activity against clinical isolate Micrococcus luteus assessed as reduction in microbial growth incubated for 24 hrs by broth microdilution method; assay type: functional
[15] = system: Staphylococcus haemolyticus; test: Antibacterial activity against clinical isolate Staphylococcus haemolyticus 1464 assessed as reduction in microbial growth incubated for 24 hrs by broth microdilution method; assay type: functional
[16] = system: Cedecea davisae; test: Antibacterial activity against clinical isolate Cedecea davisae 1813 assessed as reduction in microbial growth incubated for 24 hrs by broth microdilution method; assay type: functional
[17] = system: Escherichia coli; test: Antibacterial activity against Escherichia coli ATCC 25922 assessed as reduction in microbial growth incubated for 24 hrs by broth microdilution method; assay type: functional
[18] = system: Salmonella typhimurium; test: Antibacterial activity against Salmonella typhimurium TA100 assessed as reduction in microbial growth incubated for 24 hrs by broth microdilution method; assay type: functional, Salmonella enterica subsp. enterica serovar Typhimurium; settings: Salmonella enterica
[19] = Cytotoxicity against human CHL assessed as reduction in cell viability incubated for 72 hrs by MTT assay; assay type: toxicity, cell-based; settings: CHL cells
[20] = system: Staphylococcus epidermidis; test: Antibacterial activity against clinical isolate Staphylococcus epidermidis NKC 37/1 assessed as reduction in microbial growth incubated for 24 hrs by broth microdilution method; assay type: functional
[21] = Cytotoxicity against human MSC assessed as reduction in cell viability incubated for 72 hrs by MTT assay; assay type: toxicity, cell-based; settings: MSC cells
[22] = system: Enterococcus faecalis; test: Antibacterial activity against clinical isolate Enterococcus faecalis 1465 assessed as reduction in microbial growth incubated for 24 hrs by broth microdilution method; assay type: functional
[23] = system: Pseudomonas aeruginosa; test: Antibacterial activity against clinical isolate Pseudomonas aeruginosa NKC 17 assessed as reduction in microbial growth incubated for 24 hrs by broth microdilution method; assay type: functional

Row | SMILES | MIC [1] [mg/L] | MIC [2] [mg/L] | MIC [3] [mg/L] | MIC [4] [mg/L] | MIC [5] [mg/L] | CC50 at 72 h [6] [mg/L] | MIC [7] [mg/L] | MIC [8] [mg/L] | MIC [9] [mg/L] | MIC [10] [mg/L] | MIC [11] [mg/L] | MIC [12] [mg/L] | MIC [13] [mg/L] | MIC [14] [mg/L] | MIC [15] [mg/L] | MIC [16] [mg/L] | MIC [17] [mg/L] | MIC [18] [mg/L] | CC50 at 72 h [19] [mg/L] | MIC [20] [mg/L] | further results
1 | Cc1ncc(CN2CCN(c3cc4c(cc3F)c(=O)c(C(=O)O)cn4C3CC3)CC2)c2c1OCOC2.Cl | 0.13 | 8 | 16 | 16 | 2 | 40.3 | 0.25 | 32 | 0.03 | 2 | 2 | 1 | 0.5 | 16 | 0.13 | 0.03 | 8 | 0.5 | 14.9 | 0.25 | CC50 at 72 h [21]: 69.5 mg/L; MIC [22]: 8 mg/L; MIC [23]: 32 mg/L
2 | CCn1cc(C(=O)O)c(=O)c2cc(F)c(N3CCN(Cc4nc(C)c5c(c4CO)COC(C)(C)O5)CC3)cc21 | 4 | 32 | 32 | > 64 | 4 | 24.9 (≈ 46 µM) | 8 | > 64 | 0.25 | 16 | 2 | 2 | 8 | 4 | 4 | 2 | > 64 | 2 | 7.05 (≈ 13 µM) | 4 | CC50 at 72 h [21]: 16.2 mg/L (≈ 30 µM); MIC [22]: > 64 mg/L; MIC [23]: 64 mg/L
3 | Cc1ncc(CN2CCN(c3cc4c(cc3F)c(=O)c(C(=O)O)cn4C3CC3)CC2)c(C)c1O.Cl | 0.5 | 16 | 1 | 16 | 0.5 | 27.6 | 1 | 32 | 0.06 | 0.13 | 0.5 | 0.5 | 0.5 | 0.5 | 0.5 | 0.5 | 1 | 1 | 14.2 | 0.5 | CC50 at 72 h [21]: 25.1 mg/L; MIC [22]: 16 mg/L; MIC [23]: 16 mg/L
4 | COc1c(N2C[C@@H]3CCCN(Cc4cnc(C)c5c4COCO5)[C@@H]3C2)c(F)cc2c(=O)c(C(=O)O)cn(C3CC3)c12.Cl | 0.03 | 1 | > 64 | > 64 | 0.03 | 5.8 | 0.06 | 64 | 0.03 | 4 | 2 | 2 | 16 | 8 | 0.03 | 0.03 | 2 | 2 | 2.34 | 0.03 | CC50 at 72 h [21]: 9.62 mg/L; MIC [22]: 1 mg/L; MIC [23]: > 64 mg/L
5 | CCn1cc(C(=O)O)c(=O)c2cc(F)c(N3CCN(Cc4cnc(C)c(O)c4CO)C(C)C3)c(F)c21.Cl (centres undefined) | 1 | 16 | 8 | > 64 | 1 | 22.3 | 1 | 4 | 0.13 | 2 | 0.5 | 2 | 1 | 0.5 | 1 | 2 | 8 | 2 | 7.85 | 1 | CC50 at 72 h [21]: 13.1 mg/L; MIC [22]: 8 mg/L; MIC [23]: > 64 mg/L
6 | CCn1cc(C(=O)O)c(=O)c2cc(F)c(N3CCNCC3)cc21 [NORFLOXACIN] | 1 | 8 | 1 | 1 | 1 | 38.1 (≈ 119 µM) | 2 | 4 | 0.13 | 0.06 | 1 | 2 | 1 | 8 | 2 | 1 | 1 | 1 | 38.1 (≈ 119 µM) | 4 | CC50 at 72 h [21]: 29.3 mg/L (≈ 91.9 µM); MIC [22]: > 64 mg/L; MIC [23]: 0.25 mg/L
7 | COc1c(N2C[C@@H]3CCCN(Cc4nc(C)c(O)c(CO)c4CO)[C@@H]3C2)c(F)cc2c(=O)c(C(=O)O)cn(C3CC3)c12.Cl | 0.5 | 8 | 4 | 64 | 0.25 | 33.9 | 0.5 | > 64 | 0.03 | 2 | 2 | 2 | 2 | 2 | 0.5 | 0.25 | > 64 | 2 | 24.2 | 0.25 | CC50 at 72 h [21]: 31.7 mg/L; MIC [22]: 4 mg/L; MIC [23]: 32 mg/L
8 | COc1c(N2C[C@@H]3CCCN(Cc4cnc(C)c5c4COC(C)(C)O5)[C@@H]3C2)c(F)cc2c(=O)c(C(=O)O)cn(C3CC3)c12 | 0.5 | 32 | 64 | 32 | 4 | 3.44 (≈ 5.8 µM) | 1 | > 64 | 0.03 | 4 | 2 | 2 | 2 | 4 | 0.5 | 0.5 | > 64 | 4 | 2.85 (≈ 4.81 µM) | 1 | CC50 at 72 h [21]: 3.84 mg/L (≈ 6.48 µM); MIC [22]: 32 mg/L; MIC [23]: > 64 mg/L
